The source of these data is patent publication US11186627B2 (priority 2013, dated 2021).

Where “and” joins values, the source holds several entries; their conditions need not be identical. Equal entries are not always repeated.

The test system of assay [1] is ANN/1203/04 (H5N1) highly pathogenic avian influenza virus. Also noted: species or system ferret. Conditions: in vivo, 25 mg/kg.
Assay [2] deals with A/California/7/09 (H1N1) (H1-CA09). Particulars: mouse, in vivo.

Regarding `CCOC(=O)C1=C[C@@H](OC(CC)CC)[C@H](NC(C)=O)[C@@H](N)C1` [oseltamivir], in assay [1], the “mean day of death” value was 12 and 9; the survival rate came out at 100%. For the same molecule, in assay [2], the survival entry was “succumbed to the infection”.
